Reference: the NIST ThermoML archive (doi:10.1021/acs.jced.8b00153)
“And” between values parts separate entries of the source, which are not always exact repeats. Identical values can stand only once. ± gives the expanded uncertainty stated by the source.

Conditions: for speed of sound / mass density / vapor or sublimation pressure / viscosity: Liquid; for speed of sound: Frequency=3 MHz, Single path-length method; for mass density: Vibrating tube method; for vapor or sublimation pressure: Ebulliometric method (Recirculating still); for surface tension liquid-gas: Drop volume; for viscosity: Capillary tube (Ostwald / Ubbelohde) method

## CCc1cccs1 [2-ethylthiophene]
313.15 K, 100 kPa
  speed of sound: 1237.7 ± 1.1 m/s
  mass density: 973.34 ± 0.54 kg/m3 and 973.3 ± 0.54 kg/m3
313.15 K, 2000 kPa
  mass density: 975 ± 0.54 kg/m3
313.15 K, 5000 kPa
  mass density: 977.54 ± 0.54 kg/m3
313.15 K, 7000 kPa
  mass density: 979.22 ± 0.54 kg/m3
313.15 K, 10000 kPa
  mass density: 981.68 ± 0.54 kg/m3
313.15 K, 15000 kPa
  mass density: 985.61 ± 0.55 kg/m3
313.15 K, 20000 kPa
  mass density: 989.42 ± 0.55 kg/m3
313.15 K, 25000 kPa
  mass density: 993.09 ± 0.54 kg/m3
313.15 K, 30000 kPa
  mass density: 996.63 ± 0.54 kg/m3
313.15 K, 35000 kPa
  mass density: 1000.06 ± 0.54 kg/m3
313.15 K, 40000 kPa
  mass density: 1003.38 ± 0.54 kg/m3
313.15 K, 45000 kPa
  mass density: 1006.6 ± 0.55 kg/m3
313.15 K, 50000 kPa
  mass density: 1009.71 ± 0.55 kg/m3
313.15 K, 55000 kPa
  mass density: 1012.75 ± 0.56 kg/m3
313.15 K, 60000 kPa
  mass density: 1015.69 ± 0.56 kg/m3
313.15 K, 65000 kPa
  mass density: 1018.54 ± 0.57 kg/m3
315.55 K
  vapor or sublimation pressure: 3.01 ± 0.1 kPa
315.65 K
  surface tension liquid-gas: 28.16 ± 0.28 mN/m
315.65 K, 100 kPa
  viscosity: 0.613 ± 0.007 mPa·s
  speed of sound: 1227.7 ± 1.1 m/s
  mass density: 970.77 ± 0.54 kg/m3
318.15 K
  surface tension liquid-gas: 27.84 ± 0.28 mN/m
318.15 K, 100 kPa
  viscosity: 0.5981 ± 0.0069 mPa·s
  speed of sound: 1218 ± 1.1 m/s
  mass density: 968.32 ± 0.54 kg/m3 and 968.24 ± 0.54 kg/m3
318.15 K, 2000 kPa
  mass density: 970.02 ± 0.54 kg/m3
318.15 K, 5000 kPa
  mass density: 972.64 ± 0.54 kg/m3
318.15 K, 7000 kPa
  mass density: 974.36 ± 0.54 kg/m3
318.15 K, 10000 kPa
  mass density: 976.86 ± 0.55 kg/m3
318.15 K, 15000 kPa
  mass density: 980.93 ± 0.55 kg/m3
318.15 K, 20000 kPa
  mass density: 984.83 ± 0.55 kg/m3
318.15 K, 25000 kPa
  mass density: 988.58 ± 0.55 kg/m3
318.15 K, 30000 kPa
  mass density: 992.22 ± 0.55 kg/m3
318.15 K, 35000 kPa
  mass density: 995.71 ± 0.54 kg/m3
318.15 K, 40000 kPa
  mass density: 999.11 ± 0.54 kg/m3
318.15 K, 45000 kPa
  mass density: 1002.39 ± 0.54 kg/m3
318.15 K, 50000 kPa
  mass density: 1005.57 ± 0.55 kg/m3
318.15 K, 55000 kPa
  mass density: 1008.66 ± 0.55 kg/m3
318.15 K, 60000 kPa
  mass density: 1011.66 ± 0.56 kg/m3
318.15 K, 65000 kPa
  mass density: 1014.56 ± 0.56 kg/m3
320.65 K
  surface tension liquid-gas: 27.54 ± 0.28 mN/m
320.65 K, 100 kPa
  viscosity: 0.584 ± 0.0068 mPa·s
  speed of sound: 1208.3 ± 1.1 m/s
  mass density: 965.71 ± 0.54 kg/m3
321.73 K
  vapor or sublimation pressure: 4.095 ± 0.1 kPa
323.15 K
  surface tension liquid-gas: 27.27 ± 0.28 mN/m
323.15 K, 100 kPa
  viscosity: 0.5702 ± 0.0067 mPa·s
  speed of sound: 1198 ± 1.1 m/s
  mass density: 963.21 ± 0.54 kg/m3 and 963.18 ± 0.54 kg/m3
323.15 K, 2000 kPa
  mass density: 964.97 ± 0.54 kg/m3
323.15 K, 5000 kPa
  mass density: 967.69 ± 0.54 kg/m3
323.15 K, 7000 kPa
  mass density: 969.44 ± 0.55 kg/m3
323.15 K, 10000 kPa
  mass density: 972.03 ± 0.55 kg/m3
323.15 K, 15000 kPa
  mass density: 976.2 ± 0.55 kg/m3
323.15 K, 20000 kPa
  mass density: 980.22 ± 0.55 kg/m3
323.15 K, 25000 kPa
  mass density: 984.06 ± 0.55 kg/m3
323.15 K, 30000 kPa
  mass density: 987.78 ± 0.55 kg/m3
323.15 K, 35000 kPa
  mass density: 991.35 ± 0.55 kg/m3
323.15 K, 40000 kPa
  mass density: 994.81 ± 0.54 kg/m3
323.15 K, 45000 kPa
  mass density: 998.17 ± 0.54 kg/m3
323.15 K, 50000 kPa
  mass density: 1001.41 ± 0.54 kg/m3
323.15 K, 55000 kPa
  mass density: 1004.56 ± 0.55 kg/m3
323.15 K, 60000 kPa
  mass density: 1007.62 ± 0.55 kg/m3
323.15 K, 65000 kPa
  mass density: 1010.59 ± 0.56 kg/m3
325.65 K
  surface tension liquid-gas: 26.93 ± 0.28 mN/m
325.65 K, 100 kPa
  viscosity: 0.5566 ± 0.0067 mPa·s
  speed of sound: 1188.3 ± 1.1 m/s
  mass density: 960.64 ± 0.54 kg/m3
326.03 K
  vapor or sublimation pressure: 5.05 ± 0.1 kPa
328.15 K
  surface tension liquid-gas: 26.69 ± 0.28 mN/m
328.15 K, 100 kPa
  viscosity: 0.5437 ± 0.0066 mPa·s
  speed of sound: 1179.1 ± 1.1 m/s
  mass density: 958.12 ± 0.54 kg/m3 and 958.1 ± 0.54 kg/m3
328.15 K, 2000 kPa
  mass density: 959.94 ± 0.54 kg/m3
328.15 K, 5000 kPa
  mass density: 962.71 ± 0.54 kg/m3
328.15 K, 7000 kPa
  mass density: 964.53 ± 0.55 kg/m3
328.15 K, 10000 kPa
  mass density: 967.18 ± 0.55 kg/m3
328.15 K, 15000 kPa
  mass density: 971.45 ± 0.55 kg/m3
328.15 K, 20000 kPa
  mass density: 975.56 ± 0.55 kg/m3
328.15 K, 25000 kPa
  mass density: 979.5 ± 0.55 kg/m3
328.15 K, 30000 kPa
  mass density: 983.31 ± 0.55 kg/m3
328.15 K, 35000 kPa
  mass density: 986.98 ± 0.55 kg/m3
328.15 K, 40000 kPa
  mass density: 990.51 ± 0.55 kg/m3
328.15 K, 45000 kPa
  mass density: 993.94 ± 0.55 kg/m3
328.15 K, 50000 kPa
  mass density: 997.24 ± 0.54 kg/m3
328.15 K, 55000 kPa
  mass density: 1000.47 ± 0.54 kg/m3
328.15 K, 60000 kPa
  mass density: 1003.58 ± 0.55 kg/m3
328.15 K, 65000 kPa
  mass density: 1006.6 ± 0.55 kg/m3
330.65 K
  surface tension liquid-gas: 26.36 ± 0.28 mN/m
330.65 K, 100 kPa
  viscosity: 0.5313 ± 0.0066 mPa·s
  speed of sound: 1168.7 ± 1.1 m/s
  mass density: 955.55 ± 0.54 kg/m3
330.78 K
  vapor or sublimation pressure: 6.285 ± 0.1 kPa
333.15 K
  surface tension liquid-gas: 26.03 ± 0.27 mN/m
333.15 K, 100 kPa
  viscosity: 0.519 ± 0.0065 mPa·s
  speed of sound: 1159.1 ± 1.1 m/s
  mass density: 952.99 ± 0.54 kg/m3 and 953 ± 0.54 kg/m3
333.15 K, 2000 kPa
  mass density: 954.85 ± 0.54 kg/m3
333.15 K, 5000 kPa
  mass density: 957.72 ± 0.55 kg/m3
333.15 K, 7000 kPa
  mass density: 959.58 ± 0.55 kg/m3
333.15 K, 10000 kPa
  mass density: 962.31 ± 0.55 kg/m3
333.15 K, 15000 kPa
  mass density: 966.72 ± 0.55 kg/m3
333.15 K, 20000 kPa
  mass density: 970.93 ± 0.55 kg/m3
333.15 K, 25000 kPa
  mass density: 974.97 ± 0.55 kg/m3
333.15 K, 30000 kPa
  mass density: 978.86 ± 0.55 kg/m3
333.15 K, 35000 kPa
  mass density: 982.61 ± 0.55 kg/m3
333.15 K, 40000 kPa
  mass density: 986.22 ± 0.55 kg/m3
333.15 K, 45000 kPa
  mass density: 989.73 ± 0.55 kg/m3
333.15 K, 50000 kPa
  mass density: 993.09 ± 0.55 kg/m3
333.15 K, 55000 kPa
  mass density: 996.39 ± 0.54 kg/m3
333.15 K, 60000 kPa
  mass density: 999.56 ± 0.54 kg/m3
333.15 K, 65000 kPa
  mass density: 1002.62 ± 0.55 kg/m3
335.65 K
  surface tension liquid-gas: 25.74 ± 0.27 mN/m
335.65 K, 100 kPa
  viscosity: 0.5072 ± 0.0065 mPa·s
  speed of sound: 1149.9 ± 1.1 m/s
  mass density: 950.44 ± 0.54 kg/m3
336.67 K
  vapor or sublimation pressure: 8.17 ± 0.1 kPa
338.15 K
  surface tension liquid-gas: 25.45 ± 0.27 mN/m
338.15 K, 100 kPa
  viscosity: 0.4965 ± 0.0064 mPa·s
  speed of sound: 1140.3 ± 1.1 m/s
  mass density: 947.86 ± 0.54 kg/m3 and 947.89 ± 0.54 kg/m3
338.15 K, 2000 kPa
  mass density: 949.78 ± 0.54 kg/m3
338.15 K, 5000 kPa
  mass density: 952.72 ± 0.55 kg/m3
338.15 K, 7000 kPa
  mass density: 954.65 ± 0.55 kg/m3
338.15 K, 10000 kPa
  mass density: 957.46 ± 0.55 kg/m3
338.15 K, 15000 kPa
  mass density: 961.97 ± 0.55 kg/m3
338.15 K, 20000 kPa
  mass density: 966.32 ± 0.55 kg/m3
338.15 K, 25000 kPa
  mass density: 970.44 ± 0.55 kg/m3
338.15 K, 30000 kPa
  mass density: 974.41 ± 0.55 kg/m3
338.15 K, 35000 kPa
  mass density: 978.26 ± 0.55 kg/m3
338.15 K, 40000 kPa
  mass density: 981.96 ± 0.55 kg/m3
338.15 K, 45000 kPa
  mass density: 985.53 ± 0.55 kg/m3
338.15 K, 50000 kPa
  mass density: 988.98 ± 0.55 kg/m3
338.15 K, 55000 kPa
  mass density: 992.31 ± 0.55 kg/m3
338.15 K, 60000 kPa
  mass density: 995.56 ± 0.55 kg/m3
338.15 K, 65000 kPa
  mass density: 998.71 ± 0.54 kg/m3
342 K
  vapor or sublimation pressure: 10.22 ± 0.1 kPa
346.57 K
  vapor or sublimation pressure: 12.34 ± 0.1 kPa
351.71 K
  vapor or sublimation pressure: 15.14 ± 0.1 kPa
356.68 K
  vapor or sublimation pressure: 18.34 ± 0.1 kPa
360.83 K
  vapor or sublimation pressure: 21.48 ± 0.1 kPa
365.1 K
  vapor or sublimation pressure: 24.99 ± 0.1 kPa
370.4 K
  vapor or sublimation pressure: 30.07 ± 0.11 kPa
374.16 K
  vapor or sublimation pressure: 34.19 ± 0.11 kPa
379.56 K
  vapor or sublimation pressure: 40.88 ± 0.11 kPa
382.77 K
  vapor or sublimation pressure: 45.27 ± 0.11 kPa
387.16 K
  vapor or sublimation pressure: 51.94 ± 0.12 kPa
390.75 K
  vapor or sublimation pressure: 57.93 ± 0.12 kPa
394.79 K
  vapor or sublimation pressure: 65.36 ± 0.13 kPa
397.67 K
  vapor or sublimation pressure: 71.07 ± 0.13 kPa
401.74 K
  vapor or sublimation pressure: 79.78 ± 0.14 kPa
404.64 K
  vapor or sublimation pressure: 86.5 ± 0.14 kPa
406.64 K
  vapor or sublimation pressure: 91.35 ± 0.14 kPa
409.15 K
  vapor or sublimation pressure: 97.8 ± 0.15 kPa
410.46 K
  vapor or sublimation pressure: 101.33 ± 0.15 kPa
